Source: publication PMC11589570, “Critical assessment of LC3/GABARAP ligands used for degrader development and ligandability of LC3/GABARAP binding pockets” (Nature Communications, 2024)
Where two headings read alike, the source gives them in different places.

Target: GABARAPL2 (Homo sapiens, UniProt P60520)
Details: GABARAPL2:ligand molar ratio 1:2

Sequence of GABARAPL2 (P60520 whole entry): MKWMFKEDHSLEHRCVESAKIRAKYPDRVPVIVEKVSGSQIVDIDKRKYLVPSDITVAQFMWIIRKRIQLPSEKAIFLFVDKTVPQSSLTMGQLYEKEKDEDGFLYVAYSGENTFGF

SMILES: O=C1Nc2ccc(Br)cc2C1=Cc1cc(O)c(O)c(Br)c1 [compound 1]
- CSP (residue A19): 0.023 ppm
- CSP (residue A23): 0.017 ppm
- CSP (residue A58): 0.006 ppm
- CSP (residue A75): 0.00152 ppm
- CSP (residue A108): 0.001 ppm
- CSP (residue C15): 0.010 ppm
- CSP (residue D8): 0.011 ppm
- CSP (residue D43): 0.002 ppm
- CSP (residue D54): 0.011 ppm
- CSP (residue D81): 0.00158 ppm
- CSP (residue D100): 0.002 ppm
- CSP (residue D102): 0.015 ppm
- CSP (residue E7): 0.00272 ppm
- CSP (residue E12): 0.006 ppm
- CSP (residue E17): 0.011 ppm
- CSP (residue E34): 0.012 ppm
- CSP (residue E96): 0.00425 ppm
- CSP (residue E98): 0.005 ppm
- CSP (residue E101): 0.005 ppm
- CSP (residue F5, estimated): 0.010 ppm
- CSP (residue F60): 0.006 ppm
- CSP (residue F77): 0.00374 ppm
- CSP (residue F104): 0.019 ppm
- CSP (residue F115): 0.011 ppm
- CSP (residue G38): 0.024 ppm
- CSP (residue G103): 0.009 ppm
- CSP (residue G111): 0.00641 ppm
- CSP (residue H9): 0.012 ppm
- CSP (residue H13): 0.004 ppm
- CSP (residue I21): 0.013 ppm
- CSP (residue I32): 0.024 ppm
- CSP (residue I41): 0.011 ppm
- CSP (residue I44): 0.005 ppm
- CSP (residue I55): 0.003 ppm
- CSP (residue I63): 0.00457 ppm
- CSP (residue I64): 0.007 ppm
- CSP (residue I76): 0.00122 ppm
- CSP (residue K2): 0.007 ppm
- CSP (residue K6): 0.010 ppm
- CSP (residue K20): 0.015 ppm
- CSP (residue K24): 0.012 ppm
- CSP (residue K35): 0.010 ppm
- CSP (residue K46, estimated): 0.005 ppm
- CSP (residue K48): 0.050 ppm
- CSP (residue K66): 0.004 ppm
- CSP (residue K82, estimated): 0.002 ppm
- CSP (residue K97): 0.005 ppm
- CSP (residue K99): 0.004 ppm
- CSP (residue L11): 0.00364 ppm
- CSP (residue L50): 0.025 ppm
- CSP (residue L94): 0.011 ppm
- CSP (residue L105): 0.027 ppm
- CSP (residue M1): 0.00659 ppm
- CSP (residue M4, estimated): 0.003 ppm
- CSP (residue M61): 0.00531 ppm
- CSP (residue M91): 0.003 ppm
- CSP (residue P26, estimated): 0.020 ppm
- CSP (residue P30, estimated): 0.040 ppm
- CSP (residue P52, estimated): 0.020 ppm
- CSP (residue P71, estimated): 0.002 ppm
- CSP (residue P85, estimated): 0.002 ppm
- CSP (residue Q40): 0.000721 ppm
- CSP (residue Q59): 0.00467 ppm
- CSP (residue Q86): 0.003 ppm
- CSP (residue R14): 0.018 ppm
- CSP (residue R22): 0.020 ppm
- CSP (residue R28): 0.016 ppm
- CSP (residue R47, estimated): 0.020 ppm
- CSP (residue R65): 0.00158 ppm
- CSP (residue R67): 0.006 ppm
- CSP (residue S10): 0.010 ppm
- CSP (residue S18): 0.00255 ppm
- CSP (residue S37): 0.048 ppm
- CSP (residue S39): 0.003 ppm
- CSP (residue S53): 0.014 ppm
- CSP (residue S72): 0.00173 ppm
- CSP (residue S87): 0.000721 ppm
- CSP (residue S88): 0.00152 ppm
- CSP (residue S110): 0.00127 ppm
- CSP (residue T56): 0.00374 ppm
- CSP (residue T90): 0.0011 ppm
- CSP (residue V16): 0.014 ppm
- CSP (residue V29): 0.043 ppm
- CSP (residue V31): 0.038 ppm
- CSP (residue V33): 0.013 ppm
- CSP (residue V42): 0.00279 ppm
- CSP (residue V51): 0.046 ppm
- CSP (residue V57): 0.004 ppm
- CSP (residue V80): 0.008 ppm
- CSP (residue V84): 0.00263 ppm
- CSP (residue V107): 0.006 ppm
- CSP (residue W62): 0.015 ppm
- CSP (residue Y25): 0.034 ppm
- CSP (residue Y49): 0.064 ppm
- CSP (residue Y106): 0.023 ppm
- CSP (residue Y109): 0.009 ppm
